This note sets out measurements from patent US20250099442A1, “COMPOUNDS FOR USE IN TREATING NEUROLOGICAL DISORDERS” (Prothena Biosciences Limited, priority 2021, published 2025).

This test has as its target DYRK1A (Homo sapiens (Human), UniProt Q13627). Description: DYRK1A Inhibition Assay. Format: biochemical. The conditions noted are these: Compounds of Formula (I); DYRK1A 1 nM, ATP 20 μM, Ser/Thr 18 peptide 2 μM, 90 minutes; read-out: DYRK1 IC50. Here is the method:
• DYRK1A—Invitrogen #PV4105 • Ser/Thr 18 peptide—Invitrogen #PR8227U • Phos-Ser/Thr 18 peptide—Invitrogen #PR8229U • Assay plate—PerkinElmer #6007279 • ATP—Sigma #A7699-5G • Development reagent A—Invitrogen #PR5194B • Development buffer—Invitrogen #PR4876B
• 1. Test compounds were diluted to 1 mM in DMSO • 2. Stock was further diluted 3-fold using Echo platform • 3. 100 nL of DMSO into Columns 1 and 24 and 100 nL of compounds dilutions to Columns 2-23 in a plate.
• 1. Add 5 μL enzyme & substrate mixture to each well in Column 2-23 and A24-H24 wells of the 384-well assay plate; • 2. Add 5 μL 0% Phosphorylation control to A1-H1 and I24-P24 wells of the assay plate; • 3. Add 5 μL 100% Phosphorylation control to I1-P1 wells of the assay plate; • 4. Spin the assay plate (1000 rpm, 1 minute @23° C.); • 5. Incubate enzyme with compounds for 15 minutes at 23° C.; • 6. Add 5 μL ATP solution to each well of the assay plate; • 7. Spin the plate (1000 rpm, 1 minute @23° C.); • 8. Incubate the assay plate for 90 minutes at 23° C.; • 9. Add 10 μL Development reagent A to each well of the assay plate; • 10. Centrifuge the plate at 1000 rpm about 15 seconds and seal a film over assay plate. Incubate the assay plate for 30 minutes at 23° C. • 11. Read assay plates on Envision (see Tables A and B).
Final Compound Concentrations […]

What is called IC50 is the point on the concentration scale where inhibition reaches its midpoint.

As to `C(#CC1CCNCC1)c1ccc2c(-c3ccncc3)c[nH]c2n1` [Compound 97], the IC50 is 100 to 1000 nM.
